In brackets after ≈: the same amount, converted by molar mass. Like-named read-outs stand apart in the source and are kept apart here.
How the values were obtained:
[1] = Partition coefficient LogD; assay type: physicochemical; conditions: pH 7.4; free base
[2] = Dissociation constant (pKa); assay type: physicochemical; conditions: piperazine nitrogen of free base
[3] = test system: rat; test: Punished responding procedure (modified Geller-Seifter conflict test); conditions: for Rate of Responding: Punished responding / Rate of Responding: Unpunished responding: 60 minute pretreatment
From the text: Method. In the conflict test, hungry animals were trained to lever-press for food delivery in a standard operant chamber under 2 conditions. In the first condition, referred to as the unsuppressed component, food was delivered on average after 17 lever-presses were made (also called a VR17 schedule of reinforcement). In the second condition, referred to as the suppressed component and signaled by flashing lights inside the operant chamber, food was also delivered following an average of 17 lever-presses, but electric shock was additionally delivered to the floor of the cage under a separate VR17 schedule. Daily sessions consisted of 5 alternating presentations of each component type: suppressed (3 minutes in duration) and unsuppressed (2 minutes in duration). The number of lever presses emitted in the suppressed component was obviously low relative to the unsuppressed component.
Drug Administration and Preparation. […] Monday and Wednesday were washout/baseline days.
Apparatus. Standard 2-lever operant chambers were used (Med Associates). The chambers were fitted with 2 retractable response levers and a stimulus lamp over each of the 2 levers. A pellet dispenser delivered 45 mg food pellets, (Bio Serv) to a cup located inside of the chamber below and between the 2 response levers. A lamp at the top and back of the chamber served as houselights. The grid floors of the operant chambers were interfaced to shock generators and scramblers (Med Associates). All events in the chambers were controlled and monitored by a microprocessor.
Procedures. There were 2 components in the procedure: 1) an unsuppressed responding component (unpunished) with 2 minutes in duration; and 2) a suppressed responding component (punished) with 3 minutes in duration.
In the unpunished component, the houselights and both stimulus lamps over the response levers were turned on, the lever on the left-hand side of the chamber extended, and a food pellet was delivered following an average of 17 responses on the lever in the chamber (range 3 to 40 responses)—a variable-ratio 17 schedule (VR17).
In the punished component (which followed the unpunished component), the right-hand lever was extended into the chamber; the stimulus lamps and houselights were turned on and off at 1 second intervals, in succession, which served as a cue for this component; and food was available under a VR17 schedule, but was accompanied by an electrical current (0.5 second duration) that was delivered to the grid floor of the chamber under an independent VR17 schedule. The level of the current was adjusted for each individual subject until responding was reduced in the punished component to a level that was about 5% to 10% that of the unpunished component, and ranged from 0.2 mA to 0.75 mA. Unpunished and punished components were separated by 10 second time-out periods in which both response levers were retracted and all stimulus lamps turned off. 2 minute unpunished and 3 minute punished components alternated until 5 of each were completed. Daily sessions always began with the unpunished responding component. […] Several doses were tested on a given test day in different subjects. Each dose, then, was tested in different sub-set of rats.
Data Analysis. The dependent variables recorded were the rate of responding in unpunished and punished components (total responses/total time under the component) and the number of shocks delivered.

[4] = HPLC area %, listed as Amorphous Mono-HCl Salt of Compound A1
Protocol: (§1) Stress Experiments. Solids are stressed under different temperature or relative humidity (RH) environments for a measured time period. Specific RH values are achieved by placing the sample inside sealed chambers containing saturated salt solutions, as known in the art. The salt solutions are selected and prepared following an ASTM standard procedure. Samples are analyzed by XRPD immediately after removal from the stress environment.
Analyses are carried out on an Agilent® model 1100 high performance liquid chromatograph using gradient elution on a reversed phase column utilizing ultraviolet (UV) detection. Approximately 25 mg of the sample is weighed accurately and dissolved in methanol/water/trifluoroacetic acid (35:65:0.05) to a volume of 50 mL. The sample solution is analysed using the conditions specified below:
The content of the drug and related substances are quantified by area (%).
Chemical Stability. The chemical stability of Form I of the mono-HCl salt of Compound A1 was assessed by stressing the material at various temperature/relative humidity/light conditions, then analyzing by HPLC.
Chemical Stability Data. The chemical stability of a sample of Form I of the sesquifumarate salt of Compound A1 was assessed by stressing the material at various temperature/relative humidity/light conditions, then analyzing by HPLC.

[5] = Equilibrium solubility at 25° C.; assay type: physicochemical; conditions: thermodynamic from solid
From the text: (§2) Solubility and Dissolution Rate Data. […]

[6] = for Water content: 3 days, KF
Protocol: as §1
Modulated differential scanning calorimetry data are obtained on a TA Instruments differential scanning calorimeter 2920 equipped with a refrigerated cooling system (RCS). The sample is placed into an aluminum DSC pan, and the weight is accurately recorded. The pan is covered with a lid with is either crimped or uncrimped. MDSC data are obtained using a modulation amplitude of +/−0.8° C. and a 60 second period with an underlying heating rate of about 2° C./min. The temperature and the heat capacity are calibrated using indium metal and sapphire as the calibration standards, respectively. The reported glass transition temperature is obtained from the inflection of the step change in the reversible heat flow versus temperature curve.
Physical Stability. Physical stability measurements were performed on the amorphous form of the mono-HCl salt of Compound A1. The amorphous HCl salt prepared by spray drying was set down under two conditions (40° C./75% RH and 25° C./60% RH) for physical stability studies.
To investigate the impact of water on the amorphous mono-HCl salt, the material was stored at various RH conditions controlled by saturated salt solutions. Each material was checked by PLM (morphology), KF (water content), and mDSC (Tg value) after 3 days.

[7] = Solubility in water and aqueous acid media; assay type: physicochemical; conditions: thermodynamic from solid
Protocol: A weighed sample is treated with aliquots of the test solvent at room temperature or elevated temperature. Complete dissolution of the test material is determined by visual inspection. Solubility is estimated based on the total solvent used to provide complete dissolution. The actual solubility may be greater than the value calculated because of the use of solvent aliquots that were too large or due to a slow rate of dissolution. […] If complete dissolution is achieved as a result of only one aliquot addition, the solubility is expressed as “greater than”. Solubility of a salt may be expressed as the mass of salt dissolved per unit volume of solution, (denoted as, for example, “mg/mL”), or as the free base equivalent (denoted as, for example, “mgA/mL”).
(§3) Solubility and Dissolution Rate Data.

[8] = Solubility in simulated biological media; assay type: physicochemical; conditions: thermodynamic from solid, mean ± SD, n = 2
From the text: as §3, §2

[9] = 0.1M phosphate buffer, pH 7.5, aqueous buffer, initial pH 7.5
[10] = FeSSIF (fed-state simulated intestinal fluid), pH 5.03, fessif, initial pH 5.03
[11] = SGF (simulated gastric fluid), pH 1.3, simulated gastric fluid, initial pH 1.3
[12] = simulated gastric fluid (SGF), pH 1.3, simulated gastric fluid, SGF (simulated gastric fluid), initial pH 1.3

Structure (SMILES): CCN(CC)C(=O)c1ccc([C@H](c2cccc(N)c2)N2CCN(Cc3ccc(F)cc3)CC2)cc1 [Compound A1, 4-{(R)-(3-aminophenyl)[4-(4-fluorobenzyl)piperazin-1-yl]methyl}-N,N-diethylbenzamide]
- logD [1]: 2.53
- pKa [2]: 7.26
- sedative/hyperactive properties ([3]; observations of test subjects in their home cage): does not possess sedative/hyperactive properties
- efficacy in the model ([3]; rat, 0.21 μmol/kg): not effective
- Percent of Control: Punished responding ([3]; rat, 0.21 μmol/kg by mouth): 107 ± 19.3% of Control
- Percent of Control: Unpunished responding ([3]; rat, 0.21 μmol/kg by mouth): 103 ± 1.63% of Control
- Rate of Responding: Punished responding ([3]; rat, 0.21 μmol/kg by mouth): 0.11 ± 0.02
- Rate of Responding: Unpunished responding ([3]; rat, 0.21 μmol/kg by mouth): 2.06 ± 0.11
- Percent of Control: Punished responding ([3]; rat, 0.63 μmol/kg by mouth): 273 ± 39.2% of Control
- Percent of Control: Unpunished responding ([3]; rat, 0.63 μmol/kg by mouth): 92.1 ± 5.12% of Control
- Rate of Responding: Punished responding ([3]; rat, 0.63 μmol/kg by mouth): 0.24 ± 0.03
- Rate of Responding: Unpunished responding ([3]; rat, 0.63 μmol/kg by mouth): 2.02 ± 0.14
- Percent of Control: Punished responding ([3]; rat, 2.1 μmol/kg by mouth): 298 ± 132% of Control
- Percent of Control: Unpunished responding ([3]; rat, 2.1 μmol/kg by mouth): 106 ± 5.60% of Control
- Rate of Responding: Punished responding ([3]; rat, 2.1 μmol/kg by mouth): 0.18 ± 0.04
- Rate of Responding: Unpunished responding ([3]; rat, 2.1 μmol/kg by mouth): 1.95 ± 0.15
- increase in punished responding (maximally efficacious dose) ([3]; rat, 2.11 μmol/kg): about 300%
- Percent of Control: Punished responding ([3]; rat, 6.3 μmol/kg by mouth): 207 ± 67.2% of Control
- Percent of Control: Unpunished responding ([3]; rat, 6.3 μmol/kg by mouth): 106 ± 2.94% of Control
- Rate of Responding: Punished responding ([3]; rat, 6.3 μmol/kg by mouth): 0.17 ± 0.03
- Rate of Responding: Unpunished responding ([3]; rat, 6.3 μmol/kg by mouth): 1.92 ± 0.13
- Percent of Control: Punished responding ([3]; rat, 21.1 μmol/kg by mouth): 272 ± 100% of Control
- Percent of Control: Unpunished responding ([3]; rat, 21.1 μmol/kg by mouth): 95.5 ± 4.08% of Control
- Rate of Responding: Punished responding ([3]; rat, 21.1 μmol/kg by mouth): 0.20 ± 0.04
- Rate of Responding: Unpunished responding ([3]; rat, 21.1 μmol/kg by mouth): 1.69 ± 0.12
- effect on unpunished responding ([3]; rat, at the doses tested (0.21 to 21.1 μmol/kg)): did not significantly decrease

Structure (SMILES): CCN(CC)C(=O)c1ccc([C@H](c2cccc(N)c2)N2CCN(Cc3ccc(F)cc3)CC2)cc1 [4-{(R)-(3-aminophenyl)[4-(4-fluorobenzyl)piperazin-1-yl]methyl}-N,N-diethylbenzamide]
- % Purity after 60° C./80% RH, 2 wks ([4]; 60° C./80% RH, 2 weeks): 94.4%
- % Purity after 60° C./80% RH, 4 wks ([4]; 60° C./80% RH, 4 weeks): 94.5%
- % Purity after 80° C., 2 wks ([4]; 80° C., 2 weeks): 98.7%
- % Purity after 80° C., 4 wks ([4]; 80° C., 4 weeks): 98.6%
- Purity after Photostability 3X ICH conditions ([4]; Photostability 3X ICH conditions): 82.3%
- Initial Purity ([4]; initial, before storage): 98.8%
- solubility thermodynamic ([5]; 0.1 M citrate buffer, aqueous buffer, pH 4.5, Citrate 0.1M): 15.6 mg/mL (≈ 32.9 mM)
- solubility thermodynamic ([5]; 0.1 M phosphate buffer, aqueous buffer, pH 7.8, Phosphate 0.1M): 0.16 mg/mL (≈ 0.337 mM)
- solubility thermodynamic ([5]; aqueous buffer, 0.1N NaOH): 0.092 mg/mL (≈ 0.194 mM)
- solubility thermodynamic ([5]; simulated gastric fluid, 0.1N HCl): 21.6 mg/mL (≈ 45.5 mM)
- solubility thermodynamic ([5]; Pure water): 8.7 mg/mL (≈ 18.3 mM)
- physical stability [6]: physically stable
- physical stability (appearance) [6]: deliquesced and became brown in color
- Water content ([6]; 23.1% RH (saturated KOAc)): 3.2%
- Water content ([6]; 43.3% RH (saturated K2CO3)): 5.0%
- Water content ([6]; 54.4% RH (saturated Mg(NO3)2)): 6.2%
- Water content ([6]; 75.5% RH (saturated NaCl)): 8.2%
- Water content ([6]; 85.1% RH (saturated KCl), listed as Amorphous Mono-HCl Salt of Compound A1): 9.5%
- Water content ([6]; 85.1% RH (saturated KCl), listed as amorphous mono-HCl salt): 9.5%
- Water content ([6]; 97.3% RH (saturated K2SO4)): 14.7%
- water content (Karl-Fisher) of the resulting material ([6]; after 17 days at 25° C./60% RH (open)): 6.1%
- water content of the initial material ([6]; initial material, before storage): about 2.8%
- solubility ([7]; 0.1M phosphate acid, pH 3.3, aqueous buffer, 0.1M phosphate acid, pH=3.3, read-out: solubility in 0.1M phosphate acid): > 40 mg/mL
- solubility ([7]; 0.1M phosphate acid, pH 3.5, aqueous buffer, 0.1M phosphate acid, pH=3.5, read-out: solubility in 0.1M phosphate acid): 12 mg/mL (≈ 25.3 mM)
- solubility ([7]; 0.1 M phosphoric acid, pH 3.3, aqueous buffer, ambient temperature, pH of about 3.3 (0.1 M phosphoric acid), read-out: solubility in water (0.1 M phosphoric acid)): > 40 mg/mL
- solubility ([7]; 0.1 M phosphoric acid, pH 3.5, aqueous buffer, ambient temperature, pH of about 3.5 (0.1 M phosphoric acid), read-out: solubility in water (0.1 M phosphoric acid)): ~12 mg/mL (≈ 25.3 mM)
- solubility ([7]; 0.1N HCl, pH 2, simulated gastric fluid, 0.1N HCl, pH about 2, read-out: solubility in 0.1N HCl): 24.9 mg/mL (≈ 52.5 mM)
- solubility ([7]; water, pH 3.8, water, ambient temperature, water with a pH of about 3.8, read-out: solubility in water): ~24 mg/mL (≈ 50.6 mM)
- solubility ([7]; water, pH 3.8, water, water, pH=3.8, read-out: solubility in water): 24 mg/mL (≈ 50.6 mM)
- solubility ([7]; water, pH 4.2, water, ambient temperature, water with a pH of about 4.2, read-out: solubility in water): > 41 mg/mL
- solubility ([7]; water, pH 4.2, water, water, pH=4.2, read-out: solubility in water): > 41 mg/mL
- solubility at 3 h [8, 9]: 0.29 mg/mL (≈ 0.611 mM)
- solubility at 24 h [8, 9]: 0.1 mg/mL (≈ 0.211 mM)
- solubility at 3 h [8, 10]: 3.4 mg/mL (≈ 7.16 mM)
- solubility at 24 h [8, 10]: 3.06 mg/mL (≈ 6.45 mM)
- solubility at 3 h [8, 11]: 23 mg/mL (≈ 48.5 mM)
- solubility at 24 h [8, 11]: 22 mg/mL (≈ 46.4 mM)
- solubility at 3 h [8, 12]: 23.1 ± 0.12 mg/mL (≈ 48.7 mM)
- solubility at 24 h [8, 12]: 21.9 ± 0.23 mg/mL (≈ 46.1 mM)

From US20110207745A1 (priority 2009, published 2011)
